In ChEMBL document CHEMBL3751782, “Synthesis and biological evaluation of quinoxaline di-N-oxide derivatives with in vitro trypanocidal activity” (Bioorg Med Chem Lett, 2016):
pIC50: −log10 of the molar value.

Columns and labels:
Trypanosoma cruzi [1] = assay: Trypanocidal activity against Trypanosoma cruzi Tulahuen 2 epimastigotes at 25 uM after 5 days; type: functional; settings: Tulahuen 2, 120 h
Trypanosoma cruzi [2] = assay: Trypanocidal activity against Trypanosoma cruzi Tulahuen 2 epimastigotes after 5 days; type: functional, organism-based; settings: Tulahuen 2, 120 h
Vero = assay: Cytotoxicity against African green monkey Vero cells after 48 hrs by MTT assay; type: cell-based; settings: Chlorocebus sabaeus
[3] = Selectivity index, ratio of IC50 for African green monkey Vero cells to IC50 for Trypanosoma cruzi Tulahuen 2 epimastigotes; type: toxicity, cell-based; settings: read-out: Ratio IC50

O=C(c1ccc(F)cc1)c1c(C(F)(F)F)[n+]([O-])c2cc(F)c(F)cc2[n+]1[O-]
inhibition at 25 µM (Trypanosoma cruzi [1]): 91.8% | pIC50 (Trypanosoma cruzi [2]): 6.22 | pIC50 (Vero): 5.52 | selectivity ratio [3]: 5

O=C(c1ccc(F)cc1)c1c(C(F)(F)F)[n+]([O-])c2ccc(Cl)cc2[n+]1[O-]
inhibition at 25 µM (Trypanosoma cruzi [1]): 86.1% | pIC50 (Trypanosoma cruzi [2]): 6.00

CC(C)C(=O)c1c(C(F)(F)F)[n+]([O-])c2cc(N(C)C)c(N3CCOCC3)cc2[n+]1[O-]
inhibition at 25 µM (Trypanosoma cruzi [1]): 86% | pIC50 (Trypanosoma cruzi [2]): 4.97

O=C(c1ccc(F)cc1)c1c(C(F)(F)F)[n+]([O-])c2ccc(F)cc2[n+]1[O-]
inhibition at 25 µM (Trypanosoma cruzi [1]): 95.6% | pIC50 (Trypanosoma cruzi [2]): 5.96 | pIC50 (Vero): 5.36 | selectivity ratio [3]: 4

O=C(c1ccco1)c1c(C(F)(F)F)nc2cc(Cl)c(N3CCOCC3)cc2[n+]1[O-]
inhibition at 25 µM (Trypanosoma cruzi [1]): 91.7% | pIC50 (Trypanosoma cruzi [2]): 4.92 | pIC50 (Vero): 3.34 | selectivity ratio [3]: 37.6

CC(C)C(=O)c1c(C(F)(F)F)[n+]([O-])c2cc(N3CCOCC3)c(N3CCOCC3)cc2[n+]1[O-]
inhibition at 25 µM (Trypanosoma cruzi [1]): 66.3% | pIC50 (Trypanosoma cruzi [2]): 4.77

O=C(c1ccc(F)cc1)c1c(C(F)(F)F)[n+]([O-])c2cc(Cl)c(Cl)cc2[n+]1[O-]
inhibition at 25 µM (Trypanosoma cruzi [1]): 89.3% | pIC50 (Trypanosoma cruzi [2]): 5.89

CC(=O)c1c(C(F)(F)F)[n+]([O-])c2cc(F)c(N3CCSCC3)cc2[n+]1[O-]
inhibition at 25 µM (Trypanosoma cruzi [1]): 83.4% | pIC50 (Trypanosoma cruzi [2]): 5.70

CC(=O)c1c(C(F)(F)F)[n+]([O-])c2cc(F)c(N3CCC(N4CCOCC4)CC3)cc2[n+]1[O-]
inhibition at 25 µM (Trypanosoma cruzi [1]): 93.4% | pIC50 (Trypanosoma cruzi [2]): 5.28

CC(=O)c1c(C(F)(F)F)[n+]([O-])c2cc(F)c(N3CCOCC3)cc2[n+]1[O-]
inhibition at 25 µM (Trypanosoma cruzi [1]): 100% | pIC50 (Trypanosoma cruzi [2]): 5.19

CC(=O)c1c(C(F)(F)F)[n+]([O-])c2cc(N3CCCCC3)c(N3CCCCC3)cc2[n+]1[O-]
inhibition at 25 µM (Trypanosoma cruzi [1]): 100% | pIC50 (Trypanosoma cruzi [2]): 5.64 | pIC50 (Vero): 5.35 | selectivity ratio [3]: 1.7

CCOC(=O)c1c(C(F)(F)F)nc2cc(Cl)c(N3CCOCC3)cc2[n+]1[O-]
inhibition at 25 µM (Trypanosoma cruzi [1]): 54.6% | pIC50 (Trypanosoma cruzi [2]): < 4.60

CC(=O)c1c(C(F)(F)F)[n+]([O-])c2cc(N3CCC(O)CC3)c(N3CCC(O)CC3)cc2[n+]1[O-]
inhibition at 25 µM (Trypanosoma cruzi [1]): 15.7% | pIC50 (Trypanosoma cruzi [2]): < 4.60

CC(=O)c1c(C(F)(F)F)[n+]([O-])c2cc(F)c(N3CCCCC3)cc2[n+]1[O-]
inhibition at 25 µM (Trypanosoma cruzi [1]): 96.9% | pIC50 (Trypanosoma cruzi [2]): 5.59 | pIC50 (Vero): 4.82 | selectivity ratio [3]: 5.8

CC(=O)c1c(C(F)(F)F)[n+]([O-])c2cc(F)c(N3CCC(O)CC3)cc2[n+]1[O-]
inhibition at 25 µM (Trypanosoma cruzi [1]): 84.9% | pIC50 (Trypanosoma cruzi [2]): 5.20

O=C(Cn1ccnc1[N+](=O)[O-])NCc1ccccc1 [BENZNIDAZOLE]
inhibition at 25 µM (Trypanosoma cruzi [1]): 100% | pIC50 (Trypanosoma cruzi [2]): 5.10

CC1CS(=O)(=O)CCN1/N=C/c1ccc([N+](=O)[O-])o1 (stereo not drawn) [NIFURTIMOX]
inhibition at 25 µM (Trypanosoma cruzi [1]): 100%
